Measured values from article PMC4303209, “A novel phosphatidylinositol 3-kinase (PI3K) inhibitor directs a potent FOXO-dependent, p53-independent cell cycle arrest phenotype characterized by the differential induction of a subset of FOXO-regulated genes” (Breast Cancer Research : BCR, 2014).

System: MCF-7 breast cancer cells
Assay: Microarray gene expression analysis (Agilent whole human genome 4 x 44K; compound vs DMSO, LIMMA log2 fold change)
Format: cell-based
Conditions: Apoptosis genes

Cn1ncc2c(N3CCOCC3)nc(-c3cccc(O)c3)nc21 [ETP-45658]
KALRN log2FC (Gene 8997): 0.091
SOCS3 log2FC (Gene 9021): -1.264
BRSK2 log2FC (Gene 9024): -0.150
UBE2M log2FC (Gene 9040): -0.487
SART1 log2FC (Gene 9092): -0.304
DNAJA3 log2FC (Gene 9093): 0.296
RABEP1 log2FC (Gene 9135): 0.616
ARHGEF2 log2FC (Gene 9181): -0.734
DEDD log2FC (Gene 9191): -0.182
AURKB log2FC (Gene 9212): -0.212
FAIM3 log2FC (Gene 9214): -0.667
DLG5 log2FC (Gene 9231): -0.344
PNMA1 log2FC (Gene 9240): 0.386
NOG log2FC (Gene 9241): -0.420
CRLF1 log2FC (Gene 9244): -0.116
STK17B log2FC (Gene 9262): 0.460
STK17A log2FC (Gene 9263): 0.274
BCL7C log2FC (Gene 9274): -0.273
TAOK2 log2FC (Gene 9344): -0.736
SLIT2 log2FC (Gene 9353): 0.124
SLC9A3R1 log2FC (Gene 9368): -0.593
TJP2 log2FC (Gene 9414): 0.142
NTN1 log2FC (Gene 9423): -0.272
ITM2B log2FC (Gene 9445): 0.364
AIM2 log2FC (Gene 9447): -0.111
LY86 log2FC (Gene 9450): -0.441
EIF2AK3 log2FC (Gene 9451): 0.631
HAND2 log2FC (Gene 9464): -0.617
ATG5 log2FC (Gene 9474): -0.569
ROCK2 log2FC (Gene 9475): 0.291
MAPK8IP1 log2FC (Gene 9479): -0.208
SLC25A27 log2FC (Gene 9481): 0.161
PSMF1 log2FC (Gene 9491): -0.383
LITAF log2FC (Gene 9516): -0.463
EEF1E1 log2FC (Gene 9521): 0.192
BAG4 log2FC (Gene 9530): 0.066
BAG3 log2FC (Gene 9531): -0.998
EI24 log2FC (Gene 9538): -0.507
BCAR1 log2FC (Gene 9564): -0.597
BRE log2FC (Gene 9577): -0.322
RNF7 log2FC (Gene 9616): -0.220
TRAF4 log2FC (Gene 9618): -0.910
AATK log2FC (Gene 9625): 1.732
IKBKE log2FC (Gene 9641): -0.592
PPM1F log2FC (Gene 9647): -0.513
RAPGEF2 log2FC (Gene 9693): 0.863
ESPL1 log2FC (Gene 9700): 0.453
HERPUD1 log2FC (Gene 9709): 0.217
SLK log2FC (Gene 9748): 0.938
BCLAF1 log2FC (Gene 9774): 0.733
KIAA0141 log2FC (Gene 9812): 0.422
RB1CC1 log2FC (Gene 9821): 1.457
ARHGEF11 log2FC (Gene 9826): -0.194
ARHGEF17 log2FC (Gene 9828): 0.130
MELK log2FC (Gene 9833): 0.433
PSMD6 log2FC (Gene 9861): 0.300
ARNT2 log2FC (Gene 9915): -0.108
THOC1 log2FC (Gene 9984): 0.606
CASP8AP2 log2FC (Gene 9994): 0.813
SRA1 log2FC (Gene 10011): -0.924
PDCD6IP log2FC (Gene 10015): 0.516
PDCD6 log2FC (Gene 10016): -0.540
BCL2L11 log2FC (Gene 10018): 0.145
PARP2 log2FC (Gene 10038): 0.419
DNAJB6 log2FC (Gene 10049): 0.317
DNM1L log2FC (Gene 10059): 0.674
PDCD7 log2FC (Gene 10081): 0.102
PPIF log2FC (Gene 10105): -1.006
FEM1B log2FC (Gene 10116): -0.258
BCAP31 log2FC (Gene 10134): -0.393
RBM5 log2FC (Gene 10181): 0.716
RNF41 log2FC (Gene 10193): 0.235
PSME3 log2FC (Gene 10197): -1.314
DHRS2 log2FC (Gene 10202): 0.711
TOPORS log2FC (Gene 10210): 0.700
PSMD14 log2FC (Gene 10213): 0.447
SPRY2 log2FC (Gene 10253): -1.064
NET1 log2FC (Gene 10276): 0.571
UBE4B log2FC (Gene 10277): -0.652
SAP18 log2FC (Gene 10284): 0.262
TRAIP log2FC (Gene 10293): 0.639
MAEA log2FC (Gene 10296): -0.219
PAK4 log2FC (Gene 10298): -0.601
RTN3 log2FC (Gene 10313): -0.201
CITED2 log2FC (Gene 10370): 2.261
SEMA3A log2FC (Gene 10371): 0.054
DLC1 log2FC (Gene 10395): -0.918
GNB2L1 log2FC (Gene 10399): -0.052
YAP1 log2FC (Gene 10413): 0.283
CFDP1 log2FC (Gene 10428): 0.559
C1D log2FC (Gene 10438): 0.287
ACAA2 log2FC (Gene 10449): 0.222
VAV3 log2FC (Gene 10451): 2.242
STK25 log2FC (Gene 10494): 0.126
SEMA4D log2FC (Gene 10507): 0.201
MYBBP1A log2FC (Gene 10514): -0.538
CIB1 log2FC (Gene 10519): -0.090
ATG7 log2FC (Gene 10533): -0.393
HTATIP2 log2FC (Gene 10553): 0.241
ERN2 log2FC (Gene 10595): -0.829
RBCK1 log2FC (Gene 10616): -0.413
STAMBP log2FC (Gene 10617): 0.425
IVNS1ABP log2FC (Gene 10625): 0.124
TXNIP log2FC (Gene 10628): 2.131
RRAGA log2FC (Gene 10670): -0.331
PNMA2 log2FC (Gene 10687): -0.069
CHL1 log2FC (Gene 10752): 0.057
NES log2FC (Gene 10763): -0.458
PLK2 log2FC (Gene 10769): -0.887
ZMYND11 log2FC (Gene 10771): 0.411
NEK6 log2FC (Gene 10783): -0.620
NCKAP1 log2FC (Gene 10787): 0.702
ZNF268 log2FC (Gene 10795): 0.304
PPP1R13L log2FC (Gene 10848): 0.207
LILRB1 log2FC (Gene 10859): -0.164
MRPS30 log2FC (Gene 10884): 0.391
PROKR1 log2FC (Gene 10887): -0.235
PPARGC1A log2FC (Gene 10891): 0.117
MALT1 log2FC (Gene 10892): -0.183
JTB log2FC (Gene 10899): -0.124
BLCAP log2FC (Gene 10904): -0.662
EDAR log2FC (Gene 10913): -0.358
RNPS1 log2FC (Gene 10921): -0.273
FASTK log2FC (Gene 10922): -0.423
PRDX3 log2FC (Gene 10935): 0.630
MLLT11 log2FC (Gene 10962): -0.777
YWHAQ log2FC (Gene 10971): 0.450
IL24 log2FC (Gene 11009): -0.211
RIPK3 log2FC (Gene 11035): 0.042
PIM2 log2FC (Gene 11040): -0.863
DIDO1 log2FC (Gene 11083): -0.773
FAF1 log2FC (Gene 11124): 0.204
CAPN10 log2FC (Gene 11132): -0.095
NISCH log2FC (Gene 11188): 0.948
CHEK2 log2FC (Gene 11200): 0.312
AKAP13 log2FC (Gene 11214): -0.384
DDX20 log2FC (Gene 11218): 0.500
PDCD10 log2FC (Gene 11235): 0.541
GABARAP log2FC (Gene 11337): 0.197
ATF5 log2FC (Gene 22809): -1.275
PHLDA1 log2FC (Gene 22822): -2.095
CARD8 log2FC (Gene 22900): 0.190
SNW1 log2FC (Gene 22938): 0.686
TRIM32 log2FC (Gene 22954): -0.374
ACIN1 log2FC (Gene 22985): -0.352
TRIM35 log2FC (Gene 23087): 0.473
KIF1B log2FC (Gene 23095): 0.166
PSME4 log2FC (Gene 23198): 0.174
ARHGEF9 log2FC (Gene 23229): 0.258
PACS2 log2FC (Gene 23241): -0.307
MCF2L log2FC (Gene 23263): 0.118
TRIM2 log2FC (Gene 23321): 1.078
ARHGEF12 log2FC (Gene 23365): 0.173
PPP1R13B log2FC (Gene 23368): 0.098
NCSTN log2FC (Gene 23385): 0.216
ADNP log2FC (Gene 23394): 0.193
SIRT1 log2FC (Gene 23411): 1.263
